According to patent publication US12391646B2, “Using adiponectin receptor agonists to treat inflammation and bone diseases in diabetes” (Trustees of Tufts College, priority 2020, dated 2025):

Columns and labels:
[1] = tested on: LPS-stimulated RAW 264.7 macrophages; assay: qPCR of cytokine mRNA in LPS-stimulated RAW 264.7 macrophages; type: cell-based; details: for expression of proinflammatory cytokines such as IL-6 and IL-1B: LPS-induced macrophages
Experimental: (§1) FIG. 1 Characterization of anti-inflammatory properties of APR-like compounds. (a) Raw264.7 cells were pretreated with APR (20 μM) or new compounds 1 to 10 (5 μM) for 24 h followed by incubation with LPS (100 ng/mL) for an additional 6 h. IL-6 and IL-1β mRNA expression levels were evaluated by qPCR and normalized with GAPDH mRNA level. (b) Raw264.7 cells were pretreated with different doses of AdipoAI for 24 h followed by incubation with LPS (100 ng/mL) for additional 6 h to evaluate dose-dependency of AdipoAI in inhibiting IL-6 and IL-1β mRNA expression levels by qRT-PCR and normalized with GAPDH mRNA level. (c) Evaluation of cytotoxicity of APR, AdipoAI and compound 5 by CCK8 assay in Raw264.7 cells treated for 24 hours. (d) BMMs were pretreated with APR (20 μM), AdipoAI (5 μM) or compound 5 (5 μM) for 24 h followed by incubation with LPS (100 ng/ml) for additional 6 h for the measurement of IL-6 and IL-1β mRNA expression levels by qRT-PCR and normalized with GAPDH mRNA level. Data were expressed as the mean±SEM at five biological independent experiments. One-way ANOVA test for multiple-group comparisons, *P<0.05, significant differences between each indicated group.
RAW 264.7 macrophage cell line was purchased from ATCC (Manassas, VA, USA) and maintained in DMEM (Gibco, Life Technologies, Carlsbad, CA, USA) supplemented with 10% (v.v-1) FBS (Gibco, Life Technologies) and 1% (v.v-1) penicillin/streptomycin (Gibco, Life Technologies). The cells were routinely cultured in an incubator at 37° C. in a humidified atmosphere of 5% CO2.
Total RNA of cells was extracted using Quick-RNA Miniprep Kit (ZYMO Research, Irvine, CA, USA) and total RNA from mouse tissues was prepared with TriZol reagent (Life Technologies) according to the manufacturer's instructions followed by qRT-PCR assays as described previously (L. Zhang et al., 2014). 1 μg of total RNA was used for reverse transcription using the M-MLV Reverse Transcriptase (Thermo Scientific, Waltham, MA, USA) according to the manufacturer's protocol using PowerUp SYBR Green Master Mix (Thermo Scientific) on a Bio-Rad iQ5 thermal cycler (Bio-Rad Laboratories, Hercules, CA, USA). Differences in expression were evaluated by the comparative cycle threshold method using GAPDH or β-actin as a control. The primer sequences used for the qRT-PCR experiments are listed in supplemental Table 1.
Macrophages were seeded at a density of 5×10^5 cells/well in 12-well plates. After overnight incubation, the cells were transfected for 24 h with siRNAs targeting specific genes or scrambled control siRNAs using HiPerFect Transfection Reagent (Qiagen, Hilden, Germany) according to the manufacturer's guidelines. Gene silencing efficiency was monitored by qPCR or Western blot analysis. The siRNA duplexes used in this study were chemically synthesized by Thermo Scientific.

Raw264.7 cells = assay: CCK-8 cytotoxicity assay, 24 hours; type: cell-based; details: at 40 μM or lower concentrations
Experimental: as §1
Raw264.7 cells were seeded at 2×10^3 cells/well in 96-well plates for 16 hours and then serum-starved for 6 hours. Cells were maintained in DMEM in the presence of different concentrations of APR (AdipoGen Life Sciences, San Diego, CA, USA) and compounds for 24 hours. […] The detailed group assignment is shown in the individual figure legends.

For `O=C(COc1ccc(C(=O)c2ccccc2)cc1)NC1CCN(Cc2ccccc2)CC1` [AdipoRon, reference compound], the “expression of proinflammatory cytokines such as IL-6 and IL-1B” value [1] was “inhibited expression of proinflammatory cytokines such as IL-6 and IL-1B” and the “cytotoxic effects (CCK-8)” value (Raw264.7 cells) was “neither of the 3 small molecules mediated significant cytotoxic effects”.
With `COc1ccc(CN2CCC(NC(=O)COc3ccc(C(=O)c4ccc(Cl)cc4)cc3)CC2)cc1` [Compound 3] the “expression of proinflammatory cytokines such as IL-6 and IL-1B” value [1] was “inhibited expression of proinflammatory cytokines such as IL-6 and IL-1B”, the “dependence of inhibition of proinflammatory cytokine mRNA on AdipoRs and APPLs (siRNA)” value ([1]; Raw264.7 cells transfected with siRNA) was “prevented by AdipoR1 and APPL1 suppression, but not AdipoR2 or APPL2” and the “inhibition of IL-6 and IL1-β mRNA expression” value ([1]; compounds at 5 μM vs APR at 20 μM, 24 h pretreatment, then LPS 100 ng/mL 6 h) was “stronger inhibitory effects than APR”. The “anti-inflammatory efficacy relative to APR” value ([1]; in macrophages, estimated) was “about 8 times”, the “LPS-stimulated IL-6 and IL-1β mRNA expression, dose-dependency” value ([1]; increasing concentrations, 24 h, then LPS 100 ng/mL 6 h) was “decreased LPS-stimulated IL-6 and IL-1β mRNA expression in a dose-dependent fashion” and the “cytotoxic effects (CCK-8)” value (Raw264.7 cells) was “neither of the 3 small molecules mediated significant cytotoxic effects”.
